The test has as its target T1, SFRP-1 (Homo sapiens, UniProt Q8N474).
T1 sequence (Q8N474 32-314): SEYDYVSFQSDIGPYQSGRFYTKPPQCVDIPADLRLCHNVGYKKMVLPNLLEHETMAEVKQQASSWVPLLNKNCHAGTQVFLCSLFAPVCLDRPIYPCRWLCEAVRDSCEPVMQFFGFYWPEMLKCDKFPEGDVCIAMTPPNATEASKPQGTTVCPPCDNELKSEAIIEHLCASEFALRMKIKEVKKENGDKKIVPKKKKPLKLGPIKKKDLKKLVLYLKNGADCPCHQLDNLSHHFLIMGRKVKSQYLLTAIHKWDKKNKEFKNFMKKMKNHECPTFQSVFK
Description: Cell-based assay for in vitro measurement of SFRP-1/SARP2 antagonist activity (U2OS cells co-transfected with 16x TCF-tk-Luciferase reporter, Wnt and hSFRP-1).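 Note: U2OS cells co-transfected with a TCF-tk luciferase reporter, a Wnt vector, hSFRP-1 or empty vector and CMV-βgal, luciferase luminescence read in cell lysates alongside βgal activity.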 The following applies: U2OS.

The mark [1] stands for this setting: read-out: Fold Induction with SFRP-1, Conc 15 μM, with SFRP-1, fold induction over SFRP-1 control, single dose.
Where [2] appears, read: read-out: Fold Induction without SFRP-1, Conc 15 μM, without SFRP-1, single dose.

For 23 compounds, fold induction results are on record in patent US20060276464A1, “Diarylsulfone sulfonamides and use thereof” (Wyeth, priority 2005, published 2006).

Structures are written as SMILES. Like-named read-outs stand apart in the source and are kept apart here.

Regarding `Cc1ccc(S(=O)(=O)c2ccc(N=[N+]=[N-])cc2)cc1S(=O)(=O)NCCCn1ccnc1` [Example 293, 5-[(4-azidophenyl)sulfonyl]-N-[3-(1H-imidazol-1-yl)propyl]-2-methylbenzenesulfonamide], the fold induction at 15 µM under setting [1] came to 2.5 and the fold induction at 15 µM under setting [2] came to 0.9.
In the case of `Cc1ccc(S(=O)(=O)c2ccccc2)cc1S(=O)(=O)NCCc1c[nH]c2ccccc12` [Example 294, N-[2-(1H-indol-3-yl)ethyl]-2-methyl-5-(phenylsulfonyl)benzenesulfonamide], the fold induction at 15 µM by setting is: under setting [1], 2.3; under setting [2], 1.5.
The like results for `Cc1ccc(S(=O)(=O)c2ccccc2)cc1S(=O)(=O)NCCC1CCOCC1` [Example 299, 2-methyl-5-(phenylsulfonyl)-N-(2-tetrahydro-2H-pyran-4-ylethyl)benzenesulfonamide] were, in that order, 3.1 and 1.1.
The like results for `CCc1ccc(S(=O)(=O)c2ccccc2)cc1S(=O)(=O)NC1CCOCC1` [Example 300, 2-ethyl-5-(phenylsulfonyl)-N-tetrahydro-2H-pyran-4-ylbenzenesulfonamide] were, in that order, 3.4 and 1.2.
Taken in the same sequence, the figures for `CCc1ccc(S(=O)(=O)c2ccccc2)cc1S(=O)(=O)NCCC1CCOCC1` [Example 301, 2-ethyl-5-(phenylsulfonyl)-N-(2-tetrahydro-2H-pyran-4-ylethyl)benzenesulfonamide] were 3.3 and 1.2.
In the case of `Cc1c(S(=O)(=O)NCCc2ccccc2)cccc1S(=O)(=O)c1ccccc1` [Example 302, 2-methyl-N-(2-phenylethyl)-3-(phenylsulfonyl)benzenesulfonamide], the fold induction at 15 µM by setting is: under setting [1], 1.2; under setting [2], 1.2.
As to `CCN(C)c1ccc(S(=O)(=O)c2ccc(C)c(S(=O)(=O)NCCCn3ccnc3)c2)cc1` [Example 304, 5-({4-[ethyl(methyl)amino]phenyl}sulfonyl)-N-[3-(1H-imidazol-1-yl)propyl]-2-methylbenzenesulfonamide], the fold induction at 15 µM is 1.7 under setting [1] and 1 under setting [2].
Taken in the same sequence, the figures for `Cc1ccc(S(=O)(=O)c2ccc(N3CCCC3)cc2)cc1S(=O)(=O)NCCCn1ccnc1` [Example 305, N-[3-(1H-imidazol-1-yl)propyl]-2-methyl-5-[(4-pyrrolidin-1-ylphenyl)sulfonyl]benzenesulfonamide] were 1.8 and 1.
With `Cc1ccc(S(=O)(=O)NCCCn2ccnc2)cc1[S+]([O-])c1ccccc1` (stereo not shown) [Example 306, N-[3-(1H-imidazol-1-yl)propyl]-4-methyl-3-(phenylsulfinyl)benzenesulfonamide], the fold induction at 60 µM by setting is: (read-out: Fold Induction with SFRP-1, Conc 60 μM, with SFRP-1, fold induction over SFRP-1 control, single dose) 1.3; (read-out: Fold Induction without SFRP-1, Conc 60 μM, without SFRP-1, single dose) 0.9.
As for `Cc1ccc(S(=O)(=O)c2ccc(F)cc2)cc1S(=O)(=O)NCCn1ccnc1` [Example 307, 5-[(4-fluorophenyl)sulfonyl]-N-[2-(1H-imidazol-1-yl)ethyl]-2-methylbenzenesulfonamide], the fold induction at 15 µM was 2.5 under setting [1] and 0.9 under setting [2].
In the case of `Cc1ccc(S(=O)(=O)c2ccc(F)cc2)cc1S(=O)(=O)NC1CCOCC1` [Example 308, 5-[(4-fluorophenyl)sulfonyl]-2-methyl-N-tetrahydro-2H-pyran-4-ylbenzenesulfonamide], the fold induction at 15 µM was 2.3 under setting [1] and 0.9 under setting [2].
The like results for `Cc1ccc(S(=O)(=O)c2ccc(F)cc2)cc1S(=O)(=O)NCCC1CCOCC1` [Example 309, 5-[(4-fluorophenyl)sulfonyl]-2-methyl-N-(2-tetrahydro-2H-pyran-4-ylethyl)benzenesulfonamide] were, in that order, 1.9 and 0.9.
The like results for `Cc1ccc(S(=O)(=O)c2ccc(N3CCCCC3)cc2)cc1S(=O)(=O)NCCCn1ccnc1` [Example 312, N-[3-(1H-imidazol-1-yl)propyl]-2-methyl-5-[(4-piperidin-1-ylphenyl)sulfonyl]benzenesulfonamide] were, in that order, 1.6 and 0.9.
The like results for `COc1ccc(S(=O)(=O)c2ccc(C)c(S(=O)(=O)NCCCn3ccnc3)c2)cc1` [Example 315, N-[3-(1H-imidazol-1-yl)propyl]-5-[(4-methoxyphenyl)sulfonyl]-2-methylbenzenesulfonamide] were, in that order, 1.8 and 1.3.
As to `COc1ccccc1S(=O)(=O)c1ccc(C)c(S(=O)(=O)NCCCn2ccnc2)c1` [Example 316, N-[3-(1H-imidazol-1-yl)propyl]-5-[(2-methoxyphenyl)sulfonyl]-2-methylbenzenesulfonamide], the fold induction at 15 µM is 2.5 under setting [1] and 1.1 under setting [2].
Consider `Cc1ccc(S(=O)(=O)NCCCn2ccnc2)cc1S(=O)(=O)c1ccccc1` [Example 317, N-[3-(1H-imidazol-1-yl)propyl]-4-methyl-3-(phenylsulfonyl)benzenesulfonamide], for which the fold induction at 15 µM worked out at 1.2 under setting [1] and 1.1 under setting [2].
Consider `COc1cccc(S(=O)(=O)c2ccc(C)c(S(=O)(=O)NCCCn3ccnc3)c2)c1` [Example 323, N-[3-(1H-imidazol-1-yl)propyl]-5-[(3-methoxyphenyl)sulfonyl]-2-methylbenzenesulfonamide], for which the fold induction at 15 µM was found to be 2.6 under setting [1] and 0.9 under setting [2].
Taken in the same sequence, the figures for `Cc1cc(C)c(S(=O)(=O)c2ccccc2)cc1S(=O)(=O)NCCCn1ccnc1` [Example 325, N-[3-(1H-imidazol-1-yl)propyl]-2,4-dimethyl-5-(phenylsulfonyl)benzenesulfonamide] were 3 and 1.1.
The like results for `Cc1cc(C)c(S(=O)(=O)c2ccccc2)cc1S(=O)(=O)NCCc1ccccn1` [Example 326, 2,4-dimethyl-5-(phenylsulfonyl)-N-(2-pyridin-2-ylethyl)benzenesulfonamide] were, in that order, 2.4 and 1.
Taken in the same sequence, the figures for `Cc1cc(C)c(S(=O)(=O)c2ccccc2)cc1S(=O)(=O)NC1CCOCC1` [Example 327, 2,4-dimethyl-5-(phenylsulfonyl)-N-tetrahydro-2H-pyran-4-ylbenzenesulfonamide] were 2.7 and 1.
Take `Cc1cc(C)c(S(=O)(=O)c2ccc(F)cc2)cc1S(=O)(=O)NCCCn1ccnc1` [Example 330, 5-[(4-fluorophenyl)sulfonyl]-N-[3-(1H-imidazol-1-yl)propyl]-2,4-dimethylbenzenesulfonamide]: the fold induction at 15 µM reads like this: under setting [1], 3.2; under setting [2], 1.1.
Consider `Cc1cc(C)c(S(=O)(=O)c2ccc(F)cc2)cc1S(=O)(=O)NCCc1ccccn1` [Example 331, 5-[(4-fluorophenyl)sulfonyl]-2,4-dimethyl-N-(2-pyridin-2-ylethyl)benzenesulfonamide], for which the fold induction at 15 µM under setting [1] was 2.3 and the fold induction at 15 µM under setting [2] was 1.1.
The like results for `Cc1cc(C)c(S(=O)(=O)c2ccc(F)cc2)cc1S(=O)(=O)NC1CCOCC1` [Example 332, 5-[(4-fluorophenyl)sulfonyl]-2,4-dimethyl-N-(tetrahydro-2H-pyran-4-yl)benzenesulfonamide] were, in that order, 3 and 1.
